Values quoted from earlier work, collected in patent US20190124976A1, “NICOTINE DOSAGE REGIMEN” (priority 2014, published 2019).

Conditions: reported to be as low as

CN1CCCC1c1cccnc1 (stereo not shown) [nicotine]
minimal lethal dose: 30 mg
